Like-named read-outs stand apart in the source and are kept apart here.
How the values were obtained:
[1] = cited from earlier work
A431 cells = test: EGF-IR700 light-dependent killing; type: cell-based; details: for light-dependent killing after conjugate pre-exposure: 1 μg/mL
Description: To assess if EGF-IR700 cell killing was assessed in A431 cells. A431 cells were seeded at 5000 cells per well in 96 well white clear bottom dishes one day prior to the experiment. The following day, the A431 cells were washed three times with EMEM supplemented with 1% Penicillin/Streptomycin (serum free media). The A431 cells were then washed one time with serum free media, then incubated with serum free media containing 1 sg/mL of EGF-IRDye 700DX for one hour at 4° C. or serum free media only. As a control to assess the specificity of the activity, in one condition A431 cells were pre-incubated with 100 sg/mL unconjugated cetuximab diluted in serum free media for one hour at 4° C. prior to incubation with 1 sg/mL of EGF-IRDye 700DX. The cells were then washed one time with serum free media.
To induce IR700-dependent killing, the cells were then illuminated with a 690 nm laser with 32 J/cm^2 of light or protected from light (“no light”). Cell death was evaluated as described in Example 9 using CellTox Green. The normalized percentage of dead cells was calculated by subtracting all wells by the percentage of dead cells from the no light serum free media only control, dividing by EGF-IRDye 700DX at 32 J/cm^2 minus the no light serum-free media only control, and multiplied 100.
The effect of EGF-IRDye 700DX pre-exposure to white light versus green light on photo-activated cell killing was also evaluated in A431 cells. EGF-IRDye 700DX was pre-exposed to different types of light and the effect of light treatment on photo-activated killing activity was evaluated. Five microliters of EGF-IRDye 700DX conjugate (DAR 2) was added per clear HPLC vial at a EGF-IRDye 700DX concentration of 1.14 mg/mL. The following conditions were tested: (1) the antibody-IRDye 700DX conjugate stored at 4° C. protected from light (“4° C.”, used as the control); (2). antibody-IRDye 700DX conjugate placed in a clear glass HPLC tube under a Halogen lamp at 2500 lux for 24 hrs (“white light”); (3) antibody-IRDye 700DX conjugate placed in a clear glass HPLC tube wrapped in aluminum foil to protect from light exposure under Halogen lamp at 2500 lux for 24 hrs (“no light”, used as a control for thermal heating effects on the formation of aggregates); and (4) antibody-IRDye 700DX conjugate placed in a clear glass HPLC tube and exposed to green LED lamp at 2500 lux for 24 hrs (“green light”).
To assess cell killing activity, A431 cells were washed two times with serum free media, and incubated in serum free media alone for one hour at 4° C. The cells were then washed one time with serum free media and incubated with serum free media alone or serum free media containing 1 μg/mL of EGF-IRDye 700DX (“no light”), serum free media containing 1 μg/mL of EGF-IRDye 700DX pre-exposed to white light (“2500 Lux White light”), or serum free media containing 1 μg/mL EGF-IRDye 700DX pre-exposed to green light for one hour at 4° C. (“2500 Lux Green light”). The cells were then washed one time with serum free media.
To induce cell killing, the cells were either protected from light (light dose 0 J/cm^2) or were illuminated with a 690 nm laser with different light dosimetries (8 J/cm^2, 32 J/cm^2 or 64 J/cm).

Compound: C=Cc1c(C)c2cc3nc(c(CC(=O)N[C@@H](CC(=O)[O-])C(=O)[O-])c4[nH]c(cc5nc(cc1[nH]2)C(C)=C5CC)c(C)c4C(=O)[O-])[C@@H](CCC(=O)[O-])[C@@H]3C.[Na+].[Na+].[Na+].[Na+] [NPe6/Laserphyrin, mono-L-aspartylchlorin e6]
- extinction coefficient ([1]; at 654 nm): 40000 M⁻¹ cm⁻¹

Compound: EGF-IRDye 700DX: Human recombinant epidermal growth factor (EGF) conjugated to IRDye 700DX
- cell killing (A431 cells; 1 sg/mL, 690 nm 32 J/cm^2 or no light): light-dependent killing
- cell killing after receptor blocking (A431 cells; cells pre-exposed to 100 sg/mL unconjugated cetuximab, 1 sg/mL conjugate): blocked light-dependent cell killing
- light-dependent killing after conjugate pre-exposure (A431 cells; green light, green LED lamp 2500 lux 24 hours): comparable to that of the “no light” EGF-IRDye 700DX
- light-dependent killing after conjugate pre-exposure (A431 cells; protected from light, thermal heating under halogen lamp 2500 lux 24 hours): exhibited light-dependent killing
- light-dependent killing after conjugate pre-exposure (A431 cells; white light, halogen lamp 2500 lux 24 hours): no longer exhibited light-dependent killing activity

Compound: Photofrin
- extinction coefficient ([1]; at 630 nm): 1200 M⁻¹ cm⁻¹

Reference: patent publication US12491249B2, “Methods for manufacturing phthalocyanine dye conjugates and stable conjugates” (Rakuten Medical, Inc., priority 2015, dated 2025)
